Experiments:
[1] = tested on: SK-BR-3 cells; experiment: CellTiter-Glo Luminescent Cell Viability Assay, SK-BR-3 cells; assay type: cell-based, human; details: SK-BR-3, 96 hours, 100 μM down to 10 nM, FIG. 6b
Text: (§1) FIGS. 6a-6d depict the results of in vitro assays of the conjugate against four cell lines. FIG. 6A is a chart depicting the results of the conjugate against MCF-7 cells, cells derived from a human breast cancer cell line. FIG. 6B is a chart depicting the results of the conjugate against SK-BR-3 cells, cells derived from a human breast adenocarcinoma cell line. FIG. 6C is a chart depicting the results of the conjugate against HL-60 cells, cells derived from a human promyelocytic leukemia cell line. FIG. 6D is a chart depicting the results of the conjugate against SK-N-MC cells, cells derived from a human brain neuroblastoma (neuroepithelioma) cell line. […]
(§2) After 96 hours, the effects of doxorubicin and B12-S-doxorubicin on cell viability were determined using an assay from Promega. The CellTiter-Glo™ Luminescent Cell Viability Assay quantitates the ATP present in a culture, which correlates with metabolically active cells. Luminescence, which is dependent on ATP concentration, was measured for each individual well on a Wallac MicroBeta® JET Liquid Scintillation and Luminescence Counter. The average luminescence value of the three wells containing medium alone was subtracted from the raw data values to give corrected values. […] The three corrected values for wells dosed with the same concentration of compound were averaged and the standard deviation calculated. […]

[2] = tested on: HL-60 cells; experiment: CellTiter-Glo Luminescent Cell Viability Assay, HL-60 cells; assay type: cell-based, human; details: HL-60, 96 hours, 100 μM down to 10 nM, FIG. 6c
Text: as §1, §2

[3] = tested on: MX-1 human breast carcinoma xenograft; experiment: tumor growth delay, MX-1 xenograft, single-cycle dosing (Example 3)
Method: Test articles were administered on the day of pair matching, Day 1.
The upper limit of acceptability is 20% weight loss.

[4] = maximum tolerated dose of the conjugate in nude mice (Example 10); assay type: in vivo, Charles River nude (athymic) mice; details: 5 consecutive daily intravenous doses, FIG. 10
Method: The following procedure was used to investigate the maximum tolerated dose of the vitamin B12-doxorubicin conjugate in Charles River nude (athymic) mice. Five groups of 5 mice each were weighed and then administered the first of 5 consecutive daily doses of intravenous conjugate; dose levels were 8, 16, 32, 48 and 54 mg/kg/day. Overall toxicity was assessed by weighing the mice twice weekly starting on Day 1 of dosing (the initial dose) and by frequent inspection for clinical signs and symptoms. The NCI definition of the MTD for cancer chemotherapy in mice was adopted for this study. The desirable MTD is that dose of drug mediating a maximum mean body weight loss of ≦10% and no toxic deaths. The upper limit of the MTD is that dose causing a mean 20% weight loss in the group, and one death per 10 animals. After dosing once a day for 5 consecutive days, animals were monitored for another 5 days to address recurrent and latent toxicities.

[5] = tested on: MX-1 human breast carcinoma xenograft; experiment: tumor growth delay, MX-1 xenograft, two-cycle dosing (Example 11)
Method: The following procedure was used to investigate the tumor growth delay effects of the conjugate, particularly for the treatment of MX-1 human breast carcinoma xenograft in athymic mice using a two-cycle dosing regimen. Female nude Harlan mice are implanted subcutaneously with 1 mm^3 MX 1 solid tumor fragments in the flank. During the pre-dose phase of implantation and growth, tumors are initially monitored twice weekly, and then daily as the neoplasms approach the desired size of 80-120 mg. When the majority of tumors reached the targeted weight range (80-120 mg), mice are pair-matched into 5 treatment groups of 10 mice each. For purposes of this illustrationon the effect of 2-cycles of treatment, data from 3 groups are shown: no treatment, 3 mg/kg/day (days 1-5, 21-25) intravenous Doxorubicin and 24 mg/kg/day (days 1-5, 21-25) intravenous bioconjugate. Test article administration began on this day, referred to as Day 1. The tumor growth delay endpoint is reached when the tumor on the mouse reaches 1.5 gm weight estimated by the formula: Tumor weight (mg)=w^2×l/2×1 mg/mm^3, where w=width (mm) and l=length (mm) of the tumor. The median time to endpoint is calculated for each treatment group.

[6] = 32 mg/kg/day x 5 days intravenous
[7] = 32 mg/kg/day x 5 days intravenous, group of 10 mice
[8] = lower dose than 24 mg/kg/day, data not shown
[9] = two cycles of 24 mg/kg/day intravenous
[10] = two cycles of 24 mg/kg/day intravenous, at 71 days

COc1cccc2c1C(=O)c1c(O)c3c(c(O)c1C2=O)C[C@@](O)(C(=O)CO)C[C@@H]3O[C@H]1C[C@H](NC(=O)OCc2ccc(NC(=O)[C@H](CCCCN)NC(=O)[C@H](Cc3ccccc3)NC(=O)CCCCCNC(=O)OC[C@H]3O[C@H](n4cnc5cc(C)c(C)cc54)[C@H](O)[C@@H]3OP(=O)(O)O[C@H](C)CNC(=O)CC[C@@]3(C)C4=C(C)C5=NC(=CC6=NC(=C(C)C7=N[C@@](C)([C@H](N4)[C@@H]3CC(N)=O)[C@@](C)(CC(N)=O)[C@@H]7CCC(N)=O)[C@@](C)(CC(N)=O)[C@@H]6CCC(N)=O)C(C)(C)[C@@H]5CCC(N)=O)cc2)[C@H](O)[C@H](C)O1 [conjugate 13, B12-5′-OCONH(CH2)5CO-Phe-Lys-PABC-Dox]
cell viability versus free doxorubicin [1]: same effectiveness as doxorubicin and is slightly less potent than doxorubicin
cell viability versus free doxorubicin [2]: same effectiveness as doxorubicin and is slightly less potent than doxorubicin
median time to endpoint (tumor 1.5 gm) [3, 6]: 62.1 days
time to endpoint longer than control [3, 6]: 44.3 days
treatment or nontreatment related deaths [3, 6]: no treatment or nontreatment related deaths
maximum body weight loss ([3]; 32 mg/kg/day x 5 days intravenous, day 9): −8.4%
long-term, tumor-free survivors [3, 7]: 4 mice
mice that developed complete regression [3, 7]: 6 mice
time to endpoint longer than the Doxorubicin active control ([3]; 32 mg/kg/day x 5 days intravenous, Doxorubicin 3 mg/kg/day): 22.6 days
toxicity ([3]; 64 mg/kg/day x 5 days intravenous, group terminated on Day 4): severe toxicity
efficacy compared with the free drug (tumor size versus days) ([3]; FIG. 9): much greater efficacy than the free drug
change in tumor size ([3]; at about 2-4 weeks after administration, FIG. 9): substantial decrease in tumor size
additional toxicity (body weight) from increased amount of doxorubicin in the conjugate ([3]; single-cycle study, FIG. 12a, 2.3-fold increase of doxorubicin): not associated with additional toxicity
toxicity versus dose, as measured by percent mean body weight loss [4]: clear trend of increasing toxicity with increasing dose
MTD ([4]; mouse, in vivo, percent mean body weight loss, read-out: dose at which the conjugate was well tolerated (MTD study)): ≤ 48 mg/kg/day
efficacy versus free doxorubicin on a molar equivalent basis [5, 8]: less efficacious than free doxorubicin
tumor growth versus non-treatment control [5, 8]: delay in tumor growth was observed
time to endpoint longer than control mice ([5]; two cycles of 24 mg/kg/day (days 1-5, 21-25) intravenous): 44 days
maximum body weight loss [5, 9]: 10%
treatment or nontreatment related deaths [5, 9]: no treatment or nontreatment related deaths
long-term, tumor-free survivors [5, 10]: 7 of 10
mice that developed complete regression [5, 10]: 9 of 10
recovery from weight loss versus native doxorubicin ([5]; two-cycle study, FIG. 12b, equivalent dose of doxorubicin in the conjugate 2-fold greater): tended recover from their weight loss sooner
weight loss ([5]; two-cycle study, doxorubicin 3 mg/kg/day, bioconjugate 24 mg/kg/day): significant weight loss
reduction of tumor size and delay of tumor growth ([5]; two-cycle treatment, study day 71, FIG. 11): extremely effective at reducing tumor size and delaying tumor growth
